Results published in US11584766B2, “Nicotinamide phosphoribosyltransferase inhibitors and methods for use of the same” (THE TRUSTEES OF INDIANA UNIVERSITY, priority 2018, dated 2023).
pIC50: −log10 of the molar value. Entries after “also recorded” stand apart in the source; their conditions may differ.

Experiments:
[1] = test system: human pulmonary artery endothelial cells (hPAECs); assay: CyQUANT Direct Assay (proliferation), hPAEC; format: cell-based; details: for IC50: hPAEC, 24 h treatment; for effect on HPAEC proliferation (CYQuant Direct assay): dose response, FIG. 5
Protocol: (§1) The effect of the compounds disclosed herein on the viability, proliferation, and apoptosis of human pulmonary artery endothelial cells (“hPAECs,”) and human pulmonary artery smooth muscle cells (“hPASMCs”) was determined using the PrestoBlue Assay (viability), CYQuant Direct or BrdU Assay (proliferation) or Tunel Assay (apoptosis), as described below.
(§2) HPAECs (1×10^4 cells/well) or HPASMCs (2.5×10^3 cells/well) were seeded in 96-well plates for 24 h in full-serum tissue culture medium. The full medium was removed prior to treatment with a NAMPT inhibitor prepared in medium containing 0.1% serum. NAMPT inhibitors were solubilized in 100% DMSO, unless otherwise indicated, prior to preparation of the dose response curve in 100% DMSO. The treatment dose response curve was diluted in 0.1% serum tissue culture medium and administered to cells for 24 h. DMSO diluted in the same medium was used as the vehicle control. Cell viability was measured according to the manufacturer's protocol by adding the PrestoBlue Cell Viability Reagent (ThermoFisher Scientific, #A13261) to cells for 20 min at 37° C. in a tissue culture incubator, followed by reading fluorescence at ex560/em590. Cell proliferation was measured, either in the same wells or in separate experiments, by adding the CyQuant Direct Confirmation Reagent (ThermoFisher Scientific, #C35011) for 1 h at 37° C. in a tissue culture incubator, followed by reading fluorescence at ex485/em538. Proliferation was also measured, in separate experiments, using the BrdU Cell Proliferation Assay (Calbiochem, #QIA58). After treatment with a NAMPT inhibitor for 24 h, BrdU was added to the cells in the presence of the inhibitor, for an additional 24 h and BrdU incorporation was detected according to the manufacturer's protocol. Apoptosis was analyzed by seeding cells (1×10^5 cells/well) in 6-well plates for 24 h in full-serum medium, followed by treatment with a NAMPT inhibitor for 24 h in full-serum medium. Tunel staining and detection was performed using the Tunel Assay Kit (Abcam, #ab66110) according to the manufacturer's protocol.

[2] = in vivo; cited from earlier work
[3] = test system: vascular remodeling caused by PAH; details: rat models; cited from earlier work
[4] = test system: human pulmonary artery endothelial cells (hPAECs); assay: Tunel Assay (apoptosis), hPAEC; format: cell-based; details: for effect on HPAEC apoptosis: dose response, FIG. 7; for IC50: hPAEC
Protocol: as §1, §2

[5] = test system: human pulmonary artery endothelial cells (hPAECs); assay: PrestoBlue Assay (viability), hPAEC; format: cell-based; details: for effect on HPAEC viability: dose response, FIG. 4; for IC50: hPAEC, 24 h treatment
Protocol: as §1, §2

[6] = test system: human pulmonary artery endothelial cells (hPAECs); assay: BrdU Assay (proliferation), hPAEC; format: cell-based; details: dose response, FIG. 6
Protocol: as §1, §2

[7] = test system: human pulmonary artery smooth muscle cells (hPASMCs); assay: CyQUANT Direct Assay (proliferation), hPASMC; format: cell-based; details: dose response, FIG. 9
Protocol: as §1, §2

[8] = test system: human pulmonary artery smooth muscle cells (hPASMCs); assay: PrestoBlue Assay (viability), hPASMC; format: cell-based; details: for effect on HPASMC viability: dose response, FIG. 8; for IC50: hPASMC, 24 h treatment
Protocol: as §1, §2

[9] = test system: human pulmonary artery smooth muscle cells (hPASMCs); assay: Tunel Assay (apoptosis), hPASMC; format: cell-based
Protocol: as §1
HPAECs (1×10^4 cells/well) or HPASMCs (2.5×10^3 cells/well) were seeded in 96-well plates for 24 h in full-serum tissue culture medium. The full medium was removed prior to treatment with a NAMPT inhibitor prepared in medium containing 0.1% serum. NAMPT inhibitors were solubilized in 100% DMSO, unless otherwise indicated, prior to preparation of the dose response curve in 100% DMSO. […] Cell viability was measured according to the manufacturer's protocol by adding the PrestoBlue Cell Viability Reagent (ThermoFisher Scientific, #A13261) to cells for 20 min at 37° C. in a tissue culture incubator, followed by reading fluorescence at ex560/em590. Cell proliferation was measured, either in the same wells or in separate experiments, by adding the CyQuant Direct Confirmation Reagent (ThermoFisher Scientific, #C35011) for 1 h at 37° C. in a tissue culture incubator, followed by reading fluorescence at ex485/em538. Proliferation was also measured, in separate experiments, using the BrdU Cell Proliferation Assay (Calbiochem, #QIA58). […]

[10] = Solubility (2.5% v/v DMSO/water); format: physicochemical
[11] = test system: human pulmonary artery smooth muscle cells (hPASMCs); assay: BrdU Assay (proliferation), hPASMC; format: cell-based
Protocol: as §1, §2

NAMPT = target: T1, NAMPT (Homo sapiens, UniProt P43490); assay: CycLex NAMPT Colorimetric Assay; format: biochemical; details: CycLex NAMPT Colorimetric Assay Kit; read-out: NAMPT Inhibition IC50
T1 construct: purchased MBL International Corporation (CycLex NAMPT Colorimetric Assay Kit Ver.2)
Protocol: The ability of the compounds of the disclosure to inhibit NAMPT was determined using the CycLex NAMPT Colorimetric Assay Kit Ver.2 by MBL International Corporation.
The assay detects NAMPT activity in recombinant NAMPT or endogenous NAMPT immunoprecipiated from cell lysates according to the scheme shown in FIG. 3. In this method, NAMPT converts nicotinamide to nicotinamide mononucleotide (“NMN”). Subsequently, nicotinamide mononucleotide adenylyltransferase 1 (“NMNAT1”) converts NMN to NAD^+. Resultant NAD^+ can be measured by enzyme cycling reaction using alcohol dehydrogenase (“ADH”), diaphorase and WST-1.

T1 sequence (P43490 whole entry): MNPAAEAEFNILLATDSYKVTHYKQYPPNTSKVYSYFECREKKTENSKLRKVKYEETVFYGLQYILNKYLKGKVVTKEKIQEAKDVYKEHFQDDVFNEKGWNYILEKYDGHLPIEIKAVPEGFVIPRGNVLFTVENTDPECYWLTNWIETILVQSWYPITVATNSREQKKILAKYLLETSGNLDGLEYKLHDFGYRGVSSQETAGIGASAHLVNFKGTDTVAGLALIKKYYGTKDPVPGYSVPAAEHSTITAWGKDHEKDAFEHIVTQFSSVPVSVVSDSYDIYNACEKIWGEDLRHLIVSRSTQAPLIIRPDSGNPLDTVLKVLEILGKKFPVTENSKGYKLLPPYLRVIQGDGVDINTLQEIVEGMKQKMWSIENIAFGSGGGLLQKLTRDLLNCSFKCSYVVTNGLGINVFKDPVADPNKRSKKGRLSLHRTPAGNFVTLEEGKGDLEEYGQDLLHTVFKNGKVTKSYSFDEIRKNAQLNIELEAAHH

O=C(/C=C/c1cccnc1)NCCCCC1CCN(C(=O)c2ccccc2)CC1 [FK866]
IC50 ([1]; Homo sapiens, Endothelial cell, 24 h): 60.3 µM | renal toxicity [2]: exhibit renal toxicity | vascular remodeling caused by PAH [3]: prevent and reverse

O=C(/C=C/c1cccnc1)NCCCCCC(=O)N1c2ccccc2CC1c1ccccc1 (stereo not drawn) [DGMS-RAR-7•HO3SMe]
effect on HPAEC apoptosis [4]: dose-dependently decrease apoptosis | IC50 [4]: 117 µM | effect on HPAEC viability [5]: dose-dependently decrease cell viability; also recorded: reduction | IC50 [5]: 17.1 µM | effect on HPAEC proliferation (CYQuant Direct assay) ([1]; listed as DGMS-RAR-7-HO3SMe): dose-dependently decrease cell proliferation | effect on HPAEC proliferation (CYQuant Direct assay) ([1]; listed as DGMS-RAR-7.HO3SMe): reduction | IC50 [1]: 31.9 µM | effect on HPAEC proliferation (BrdU assay) [6]: dose-dependently decrease cell proliferation | effect on HPASMC proliferation (CYQuant Direct assay) [7]: dose-dependently decrease cell proliferation | effect on HPASMC viability [8]: dose-dependently decrease cell viability | IC50 [8]: 26.6 µM | IC50 [9]: 94.1 µM

Cl.O=C(/C=C/c1cccnc1)NCCCCCC(=O)N1c2ccccc2CC1c1ccccc1 (stereo not drawn) [DGMS-RAR-7•HCl]
IC50 ([4]; Homo sapiens, Endothelial cell): 183 µM | effect on HPAEC apoptosis [4]: dose-dependently decrease apoptosis | Solubility (2.5% v/v DMSO/water) [10]: Good | IC50 [11]: 63.9 µM | effect on HPAEC viability [5]: dose-dependently decrease cell viability; also recorded: reduction | IC50 [5]: 13.9 µM | pIC50 (NAMPT): 7.82 | effect on HPAEC proliferation (CYQuant Direct assay) ([1]; listed as DGMS-RAR-7-HCl): dose-dependently decrease cell proliferation | effect on HPAEC proliferation (CYQuant Direct assay) ([1]; listed as DGMS-RAR-7.HCl): reduction | IC50 [1]: 26.6 µM | effect on HPAEC proliferation (BrdU assay) [6]: dose-dependently decrease cell proliferation | effect on HPASMC proliferation (CYQuant Direct assay) [7]: dose-dependently decrease cell proliferation | IC50 ([8]; Homo sapiens, 24 h): 31.1 µM | effect on HPASMC viability [8]: dose-dependently decrease cell viability | IC50 ([9]; Homo sapiens): 116 µM
